In publication PMC6850446, “In vivo inactivation of glycosidases by conduritol B epoxide and cyclophellitol as revealed by activity‐based protein profiling” (The Febs Journal, 2019):
Like-named read-outs stand apart in the source and are kept apart here.

Columns and labels:
GANAB (zebrafish larvae) = test system: T1, GANAB (zebrafish larvae); assay: live larvae exposed, residual activity in lysate with 4MU-alpha-D-glucopyranoside; design: species or system Danio rerio; conditions: covalent; in vivo: concentration in egg water, 5 days at 28.5 °C; assay pH 7.0; read-out: CBE / Enz. assay
T1 construct: endogenous enzyme in larvae, measured in larval lysate; paralogues not distinguished
Source text: live larvae exposed, residual activity in lysate with 4MU-alpha-D-glucopyranoside on GANAB (zebrafish larvae)

GUSB (zebrafish larvae) = molecular target: T2, GUSB (zebrafish larvae) (Danio rerio, UniProt F1QGS9); assay: live larvae exposed, residual activity in lysate with 4MU-beta-D-glucuronide; conditions: covalent; in vivo: concentration in egg water, 5 days at 28.5 °C; assay pH 5.0; read-out: CBE / Enz. assay
T2 construct: endogenous enzyme in larvae, measured in larval lysate
T2 sequence (F1QGS9 26-644): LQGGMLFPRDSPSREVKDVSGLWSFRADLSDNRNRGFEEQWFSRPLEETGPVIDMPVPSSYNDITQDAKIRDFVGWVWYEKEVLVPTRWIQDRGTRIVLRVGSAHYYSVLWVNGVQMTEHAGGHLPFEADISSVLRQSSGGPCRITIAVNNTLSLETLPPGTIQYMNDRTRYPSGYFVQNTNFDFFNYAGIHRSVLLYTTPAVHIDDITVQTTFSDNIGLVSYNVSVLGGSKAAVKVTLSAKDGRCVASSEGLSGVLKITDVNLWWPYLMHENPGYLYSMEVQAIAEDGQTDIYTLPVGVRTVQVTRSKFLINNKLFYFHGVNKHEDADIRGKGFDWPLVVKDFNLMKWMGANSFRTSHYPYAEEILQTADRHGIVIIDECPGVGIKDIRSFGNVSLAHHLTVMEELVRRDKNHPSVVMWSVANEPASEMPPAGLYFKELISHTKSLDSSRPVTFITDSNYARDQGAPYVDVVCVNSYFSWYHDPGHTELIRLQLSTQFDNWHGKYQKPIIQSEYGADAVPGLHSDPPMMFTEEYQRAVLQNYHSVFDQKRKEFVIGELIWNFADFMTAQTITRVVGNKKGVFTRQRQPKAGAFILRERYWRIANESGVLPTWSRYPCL
Source text: live larvae exposed, residual activity in lysate with 4MU-beta-D-glucuronide on GUSB (zebrafish larvae)

GANAB = molecular target: T3, GANAB (Homo sapiens, UniProt Q14697); assay: intact cells treated, residual activity in lysate with 4MU-alpha-D-glucopyranoside; format: cell-based; conditions: 24 h treatment of intact HEK293T cells, assay pH 7.0
T3 construct: endogenous enzyme in HEK293T cells (GBA2-expressing line); beta subunit not mentioned
T3 sequence (Q14697 29-944): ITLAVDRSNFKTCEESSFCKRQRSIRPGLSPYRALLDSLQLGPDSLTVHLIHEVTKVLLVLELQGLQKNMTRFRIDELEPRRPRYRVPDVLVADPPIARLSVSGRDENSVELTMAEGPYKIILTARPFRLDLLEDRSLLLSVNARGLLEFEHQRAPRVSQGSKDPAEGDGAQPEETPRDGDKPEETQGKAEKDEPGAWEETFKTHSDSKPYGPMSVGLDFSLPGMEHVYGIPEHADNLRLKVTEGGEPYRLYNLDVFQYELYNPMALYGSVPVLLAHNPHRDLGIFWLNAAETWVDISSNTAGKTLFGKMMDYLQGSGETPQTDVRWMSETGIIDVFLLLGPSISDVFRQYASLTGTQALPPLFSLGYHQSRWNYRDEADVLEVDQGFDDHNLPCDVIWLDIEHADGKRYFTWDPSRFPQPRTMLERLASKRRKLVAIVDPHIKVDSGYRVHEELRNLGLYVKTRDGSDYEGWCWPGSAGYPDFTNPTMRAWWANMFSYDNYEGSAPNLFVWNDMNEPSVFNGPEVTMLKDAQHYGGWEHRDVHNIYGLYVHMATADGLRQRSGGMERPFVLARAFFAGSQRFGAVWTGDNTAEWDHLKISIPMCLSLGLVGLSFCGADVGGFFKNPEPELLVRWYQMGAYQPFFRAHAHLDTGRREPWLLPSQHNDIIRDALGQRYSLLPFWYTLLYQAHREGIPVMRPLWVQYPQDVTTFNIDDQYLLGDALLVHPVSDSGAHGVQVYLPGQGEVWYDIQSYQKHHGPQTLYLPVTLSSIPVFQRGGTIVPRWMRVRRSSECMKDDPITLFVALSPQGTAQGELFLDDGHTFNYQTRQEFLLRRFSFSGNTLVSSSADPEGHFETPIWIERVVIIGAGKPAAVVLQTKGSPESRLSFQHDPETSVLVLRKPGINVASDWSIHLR

| IC50 (GUSB (zebrafish larvae)) [mM] | IC50 (GANAB; covalent, read-out: CBE / Enz. assay) [mM] | Structure (SMILES) | IC50 (GANAB (zebrafish larvae)) [mM] | IC50 (GANAB; read-out: apparent IC50) [mM] |
| --- | --- | --- | --- | --- |
| 6.38 | 1.58 | OC1C(O)C(O)C2OC2C1O (stereo not shown) [compound 1, conduritol B epoxide] | 4.55 | – |
| – | – | OC[C@@H]1[C@@H](O)[C@H](O)[C@@H](O)[C@@H]2O[C@H]12 [compound 2, cyclophellitol] | – | > 0.01 |
